Source: PubChem BioAssay AID192 (DTP/NCI, 2004)
Values joined by “and” are separate entries in the source; they are usually repeats but may differ in a detail not shown here. Equal entries are not always repeated. Inconclusive results and toxic doses are left out. Rule for the calls: active = survival T/C of 150% or more; inactive = T/C below 125% in these data. Numbered stars: 1 amine (or outer) side, 2 acyl side, 3 side chain; on linkers, the order of the positions; unused ones are H or OH. Square brackets hold non-standard residues; d marks the D form. Peptide text beside a SMILES is read from it. * marks the point of attachment. X6 = CCC(=O)CC1CC(C)CC(C(=O)[*:2])N1[*:1]; X5 = CCCCCCCCC(C)C(=O)*; Aib = CC(C)(N)C(=O)O; X7 = CC(CN(C)CCO)N*

Test system: BDF1 mice, B16 melanoma ip, median survival T/C
Assay: NCI In Vivo Anticancer Drug Screen. Data for tumor model B16 Melanoma (intraperitoneal) in B6D2F1 (BDF1) mice
Conditions: endpoint: median survival time, higher = longer survival
How it was run: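 Vehicle-treated animals serve as the reference (C); treated animals (T) are scored for survival or tumor size after tumor transplantation.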

[1] = dose: 100.0 mg/kg/injection, schedule: Q01DX009 (ip), vehicle: Klucel (hydroxypropylcellulose) (HPC)
[2] = dose: 200.0 mg/kg/injection, schedule: Q01DX009 (ip), vehicle: Klucel (hydroxypropylcellulose) (HPC)
[3] = dose: 400.0 mg/kg/injection, schedule: Q01DX009 (ip), vehicle: Klucel (hydroxypropylcellulose) (HPC)
[4] = dose: 100.0 mg/kg/injection, schedule: Q01DX009 (ip), vehicle: saline with Tween-80
[5] = dose: 200.0 mg/kg/injection, schedule: Q01DX009 (ip), vehicle: saline with Tween-80
[6] = dose: 25.0 mg/kg/injection, schedule: Q01DX009 (ip), vehicle: saline with Tween-80
[7] = dose: 50.0 mg/kg/injection, schedule: Q01DX009 (ip), vehicle: saline with Tween-80
[8] = dose: 100.0 mg/kg/injection, schedule: Q01DX009 (ip), vehicle: saline
[9] = dose: 200.0 mg/kg/injection, schedule: Q01DX009 (ip), vehicle: saline
[10] = dose: 400.0 mg/kg/injection, schedule: Q01DX009 (ip), vehicle: saline
[11] = dose: 6.25 mg/kg/injection, schedule: Q01DX009 (ip), vehicle: Klucel (hydroxypropylcellulose) (HPC)
[12] = dose: 12.5 mg/kg/injection, schedule: Q01DX009 (ip), vehicle: Klucel (hydroxypropylcellulose) (HPC)
[13] = dose: 25.0 mg/kg/injection, schedule: Q01DX009 (ip), vehicle: Klucel (hydroxypropylcellulose) (HPC)
[14] = dose: 12.5 mg/kg/injection, schedule: Q01DX009 (ip), vehicle: saline with Tween-80

Measured: T/C

O=[N+]([O-])c1ccc2c(N=Nc3ccc4ccccc4c3O)c(O)cc(S(=O)(=O)O)c2c1
inactive: dose: 37.5 mg/kg/injection, schedule: Q01DX009 (ip), vehicle: Klucel (hydroxypropylcellulose) (HPC) 94 % of control | dose: 75.0 mg/kg/injection, schedule: Q01DX009 (ip), vehicle: Klucel (hydroxypropylcellulose) (HPC) 98 % of control

COc1ccc(OC(=O)Nc2ccccc2OC)cc1
inactive: [1] 100 % of control | [2] 93 % of control | [3] 93 % of control

CCCCCCCCC(C)C(=O)N1CCCC1C(=O)N1C(CC(=O)CC)CC(C)CC1C(=O)NC(C)C(=O)NC(C)(C)C(=O)NC(C)(C)C(=O)NC(C(=O)NC(C)C(=O)NC(C)(C)C(=O)NC(C)(C)C(=O)NC(C)CN(C)CCO)C(C)CC (stereo not given) (X5-P[X6]A[Aib][Aib]IA[Aib][Aib]-X7; configuration not given here)
inactive: dose: 0.63 mg/kg/injection, schedule: Q01DX009 (ip), vehicle: Klucel (hydroxypropylcellulose) (HPC) 102 % of control | dose: 1.25 mg/kg/injection, schedule: Q01DX009 (ip), vehicle: Klucel (hydroxypropylcellulose) (HPC) 90 % of control | dose: 2.5 mg/kg/injection, schedule: Q01DX009 (ip), vehicle: Klucel (hydroxypropylcellulose) (HPC) 95 % of control

OC1(c2ccccc2)c2ccc(Br)cc2-c2cc(Br)ccc21
inactive: [4] 92 % of control | [5] 88 % of control

CC(C)N(CCCC#N)C(C)C
inactive: [6] 91 % of control | [7] 102 % of control | [4] 100 % of control

CN1CCN=C1c1ccc(NC(=O)c2ccc(C(=O)Nc3ccc(C4=NCCN4C)cc3)c(N)c2)cc1
inactive: dose: 1.25 mg/kg/injection, schedule: Q01DX009 (ip), vehicle: saline 115 % of control | dose: 1.25 mg/kg/injection, schedule: Q04DX003 (ip), vehicle: saline 89 % of control | dose: 2.5 mg/kg/injection, schedule: Q01DX009 (ip), vehicle: saline 117 % of control | dose: 2.5 mg/kg/injection, schedule: Q04DX003 (ip), vehicle: saline 94 % of control | dose: 5.0 mg/kg/injection, schedule: Q01DX009 (ip), vehicle: saline 115 % of control | dose: 5.0 mg/kg/injection, schedule: Q04DX003 (ip), vehicle: saline 100 % of control

C#CC1(OCC(CCl)OC(N)=O)CCCCC1 (stereo not given)
inactive: [6] 87 % of control | [4] 104 % of control

C1OC1CN1CCN(CC2CO2)CC1 (stereo not given)
inactive: dose: 8.0 mg/kg/injection, schedule: Q01DX009 (ip), vehicle: saline with Tween-80 121 % of control | dose: 16.0 mg/kg/injection, schedule: Q01DX009 (ip), vehicle: saline with Tween-80 119 % of control

CCC(=O)c1ccccc1NC(C)=O
inactive: [1] 102 % of control | [2] 98 % of control | [3] 97 % of control

NCC(=O)NC(CO)C(=O)O (stereo not given)
inactive: [8] 90 % of control | dose: 100.0 mg/kg/injection, schedule: Q04DX003 (ip), vehicle: saline 100 % of control | [9] 106 % of control | dose: 200.0 mg/kg/injection, schedule: Q04DX003 (ip), vehicle: saline 102 % of control | [10] 95 % of control | dose: 400.0 mg/kg/injection, schedule: Q04DX003 (ip), vehicle: saline 95 % of control

COc1nc(NC(C)C)nc(NC(C)C)n1
inactive: [7] 102 % of control | dose: 66.0 mg/kg/injection, schedule: Q01DX009 (ip), vehicle: saline with Tween-80 93 % of control | [4] 86 % of control | dose: 150.0 mg/kg/injection, schedule: Q01DX009 (ip), vehicle: saline with Tween-80 97 % of control | [5] 105 % of control

C[C@]12C=CC(=O)C=C1CC[C@@H]1[C@@H]2[C@@H](O)C[C@@]2(C)[C@H]1CC[C@]2(O)C(=O)CO
inactive: dose: 10.0 mg/kg/injection, schedule: Q02DX009 (ip), vehicle: Klucel (hydroxypropylcellulose) (HPC) 91 % of control | dose: 20.0 mg/kg/injection, schedule: Q02DX009 (ip), vehicle: Klucel (hydroxypropylcellulose) (HPC) 100 % of control | dose: 40.0 mg/kg/injection, schedule: Q02DX009 (ip), vehicle: Klucel (hydroxypropylcellulose) (HPC) 96 % of control | dose: 80.0 mg/kg/injection, schedule: Q02DX009 (ip), vehicle: Klucel (hydroxypropylcellulose) (HPC) 103 % of control | dose: 160.0 mg/kg/injection, schedule: Q02DX009 (ip), vehicle: Klucel (hydroxypropylcellulose) (HPC) 109 % of control and 115 % of control | dose: 320.0 mg/kg/injection, schedule: Q02DX009 (ip), vehicle: Klucel (hydroxypropylcellulose) (HPC) 92 % of control

C=CCOCC(O)CN(CC(C)C)CC(C)C (stereo not given)
inactive: [11] 98 % of control | [12] 104 % of control | [13] 100 % of control

Cc1cnnc2ccccc12
inactive: [14] 91 % of control | [6] 98 % of control | [7] 95 % of control

OCC1OC(n2cnc3c(Cl)ncnc32)C(O)C1O (stereo not given)
inactive: dose: 12.5 mg/kg/injection, schedule: Q01DX009 (ip), vehicle: saline 123 % of control | dose: 25.0 mg/kg/injection, schedule: Q01DX009 (ip), vehicle: saline 102 % of control | dose: 50.0 mg/kg/injection, schedule: Q01DX009 (ip), vehicle: saline 108 % of control | [8] 105 % of control | [9] 106 % of control | [10] 106 % of control

Nc1nc2c(ncn2C2OC(CO)C(O)C2O)c(=O)[nH]1 (stereo not given)
inactive: dose: 25.0 mg/kg/injection, schedule: Q01DX009 (ip), vehicle: suspension in saline 101 % of control | dose: 50.0 mg/kg/injection, schedule: Q01DX009 (ip), vehicle: suspension in saline 110 % of control | dose: 100.0 mg/kg/injection, schedule: Q01DX009 (ip), vehicle: suspension in saline 113 % of control | dose: 400.0 mg/kg/injection, schedule: Q01DX009 (ip), vehicle: suspension in saline 116 % of control

OCCN1CCC2(CC1)SSC1(CCN(CCO)CC1)S2
inactive: [8] 117 % of control | [9] 112 % of control

O=CN(SSN(C=O)C1CCCCC1)C1CCCCC1
inactive: [14] 110 % of control | [6] 100 % of control | [7] 98 % of control | [4] 102 % of control | [5] 88 % of control

Cc1ccc(NCC2(/N=C/c3ccccc3)OC(CO)C(O)C2O)cc1 (stereo not given)
inactive: [11] 98 % of control | [12] 109 % of control | [13] 91 % of control and 95 % of control | dose: 50.0 mg/kg/injection, schedule: Q01DX009 (ip), vehicle: Klucel (hydroxypropylcellulose) (HPC) 90 % of control and 92 % of control | [1] 93 % of control and 114 % of control | dose: 177.0 mg/kg/injection, schedule: Q01DX009 (ip), vehicle: Klucel (hydroxypropylcellulose) (HPC) 123 % of control | [2] 104 % of control | dose: 266.0 mg/kg/injection, schedule: Q01DX009 (ip), vehicle: Klucel (hydroxypropylcellulose) (HPC) 123 % of control | [3] 109 % of control

COc1ccc(COC(=O)CN2C(=O)c3ccccc3C2=O)cc1
inactive: [1] 105 % of control | [2] 107 % of control | [3] 100 % of control

CC(C)COC(=O)c1ccc(NC(=O)Nc2ccccc2)cc1
inactive: [4] 93 % of control | [5] 102 % of control | dose: 400.0 mg/kg/injection, schedule: Q01DX009 (ip), vehicle: saline with Tween-80 97 % of control

OC(COC(c1ccccc1)(c1ccccc1)c1ccccc1)C(O)CC1SCCS1 (stereo not given)
inactive: dose: 3.13 mg/kg/injection, schedule: Q01DX009 (ip), vehicle: saline with Tween-80 107 % of control | dose: 6.25 mg/kg/injection, schedule: Q01DX009 (ip), vehicle: saline with Tween-80 100 % of control | [14] 103 % of control | [6] 104 % of control
